Measurements published in EP3685668B1, “COMPOSITION COMPRISING ACIBENZOLAR-S-METHYL AS EFFECTIVE INGREDIENT FOR CONTROLLING BURSAPHELENCHUS XYLOPHILUS DISEASE AND METHOD FOR CONTROLLING BURSAPHELENCHUS XYLOPHILUS USING SAME” (Industry Foundation of Chonnam National University, priority 2017, dated 2019).

What was measured:
Experiment in all cases: qRT-PCR expression of induced resistance gene in pine tree callus
Type in all cases: cell-based
Antipeptide = conditions: 200 µg/mℓ; for Expression of induced resistance gene, Antipeptide: 24 hours
Experimental: (§1) For in vitro analysis of induced resistance, the expression of PR genes and other plant defense-related genes was determined, which are evolved in various defense mechanisms including induced resistance. The primers of sixteen induced resistance-related genes of pine tree used in this invention were listed in the below and elongation factor_1 alpha were used as a reference gene. [Table 4] The primer list of defense resistance-related genes
(§2) After the treatment with 200 µg / mℓ of candidates of the selected induced resistance material, expression of the induced resistance-related gene in pine callus was determined by qRT-PCR using the primer pairs of defense resistance-related genes in Table 4. As a candidate group of an induced resistance material in pine tree, acibenzolar-S-methyl (ASM), TDL (Tiadinil), ITL (Isotianil), PBZ (Probenzole), AZO (Azoxystrobin), VMA (Validamycin A), MeJA (Methyl jasmonate), BABA (DL-3-aminobutyric acid), 2,3-BDO (2,3-Butanediol), GABA (r-Aminobutyric acid), glucan (Glucan), ER (Ergosterol), and AZA (Azelaic acid) were used. For the in vitro analysis of the expression of induced resistance gene in pine callus, the selected induced resistance materials were applied with 500 µℓ of LM liquid medium on a surface of pine tree callus (100 mg) in 12-well microplate to give final concentration of 200 µg/mℓ. Then, the callus surface was sufficiently reacted for 24 hours with the candidate of pine tree induced resistance material by shaking at 50 rpm in a 25 °C shaking incubator under dark condition. RNAs were extracted from the callus after completion of the reaction with an induced resistance material, followed by synthesis of cDNAs. Then, by carrying out qRT-PCR, the expression of induced resistance genes was determined. [Table 5] Expression of induced resistance gene in pine tree callus by TDL, PBZ, ASM, ITL, AZO, VMA, glucan, and AZA
(§3) Based on the results of assay using young plants and gene expression by selected induce resistance materials, it seemed that acibenzolar-S-methyl had the most excellent effect. Thus, the following tests were carried out using acibenzolar-S-methyl only. Expression of the induced resistance genes at different culture time after the chemical treatment was examined. For the in vitro assay, LM medium containing pine tree callus was treated with acibenzolar-S-methyl at concentration of 200 µg / mℓ, followed by reaction for 1 day, 7 days, or 14 days in a 25°C shaking incubator under dark condition. RNAs were extracted from the callus after the reaction followed by synthesis of cDNAs. Then, by carrying out qRT-PCR, the expression of the induced resistance genes was determined. Depending on reaction time after the treatment, i.e., after 1 day, 7 days, or 14 days, the expression of the obtained induced resistance genes was examined. As a result of the in vitro callus assay depending on reaction time after the treatment with acibenzolar-S-methyl, the expression of the induced resistance-related genes is the highest at 1 day after the treatment with acibenzolar-S-methyl and gradually diminished over time, as it is shown in Table 7. In this regard, it is contemplated that the expression of genes acquired by acibenzolar-S-methyl is not maintained in highly expressed state until the pathogen invasion and just memorized with at minimum level so that the energy consumption by plant can be efficiently managed. [Table 7] Expression of induced resistance gene in pine tree callus by acibenzolar-S-methyl depending on reaction time
(§4) To have an in vitro assay according to different methods of treatment with acibenzolar-S-methyl, two separate treatment methods, i.e., surface treatment (spraying treatment) of pine tree callus and direct application of the induced resistance material to an LM medium containing pine tree callus, were performed. […]

Extensin = conditions: for Expression of induced resistance gene, Extensin: 24 hours
Experimental: as §1, §2, §3, §4

Heat shock 70 = conditions: for Expression of induced resistance gene, Heat shock 70: 24 hours
Experimental: as §1, §2, §3, §4

Hydroxyproline = conditions: for Expression of induced resistance gene, Hydroxyproline: 24 hours
Experimental: as §1, §2, §3, §4

Metallothionein = conditions: for Expression of induced resistance gene, Metallothionein: 24 hours
Experimental: as §1, §2, §3, §4

PR_10 family = conditions: for Expression of induced resistance gene, PR_10 family: 24 hours
Experimental: as §1, §2, §3, §4

PR_1b family = conditions: 200 µg/mℓ; for Expression of induced resistance gene, PR_1b family: 24 hours
Experimental: as §1, §2, §3, §4

[1] = Direct supplying as a medium component
[2] = 200 µg/mℓ, Direct supplying as a medium component
[3] = concentration series, 200 µg/mℓ

Structure (SMILES): CSC(=O)c1cccc2nnsc12 [ASM, acibenzolar-S-methyl]
- Expression of induced resistance gene, Antipeptide (Antipeptide): 1.83
- Expression of induced resistance gene, Antipeptide (Antipeptide; [1]): 7.21
- Expression of induced resistance gene, Antipeptide (Antipeptide; Spraying): 1.83
- Gene expression level, Antipeptide (Antipeptide; After 1 day): 10.63
- Gene expression level, Antipeptide (Antipeptide; After 7 days): 1.28
- Gene expression level, Antipeptide (Antipeptide; After 14 days): 0.58
- Gene expression level, Antipeptide (Antipeptide; concentration series): 5.352
- Expression of induced resistance gene, Extensin (Extensin; 200 µg/mℓ): 2.1
- Expression of induced resistance gene, Extensin (Extensin; [2]): 2.27
- Expression of induced resistance gene, Extensin (Extensin; 200 µg/mℓ, Spraying): 2.1
- Gene expression level, Extensin (Extensin; 200 µg/mℓ, After 1 day): 9.99
- Gene expression level, Extensin (Extensin; 200 µg/mℓ, After 7 days): 1.23
- Gene expression level, Extensin (Extensin; 200 µg/mℓ, After 14 days): 0.33
- Gene expression level, Extensin (Extensin; concentration series, 2 µg/mℓ): 0.9012
- Gene expression level, Extensin (Extensin; concentration series, 20 µg/mℓ): 1.385
- Gene expression level, Extensin (Extensin; [3]): 1.693
- Expression of induced resistance gene, Heat shock 70 (Heat shock 70; 200 µg/mℓ): 1.75
- Expression of induced resistance gene, Heat shock 70 (Heat shock 70; [2]): 10.06
- Expression of induced resistance gene, Heat shock 70 (Heat shock 70; 200 µg/mℓ, Spraying): 1.75
- Gene expression level, Heat shock 70 (Heat shock 70; 200 µg/mℓ, After 1 day): 2.27
- Gene expression level, Heat shock 70 (Heat shock 70; 200 µg/mℓ, After 7 days): 0.97
- Gene expression level, Heat shock 70 (Heat shock 70; 200 µg/mℓ, After 14 days): 0.77
- Gene expression level, Heat shock 70 (Heat shock 70; concentration series, 20 µg/mℓ): 23.26
- Gene expression level, Heat shock 70 (Heat shock 70; [3]): 53.45
- Expression of induced resistance gene, Hydroxyproline (Hydroxyproline; 200 µg/mℓ): 1.79
- Expression of induced resistance gene, Hydroxyproline (Hydroxyproline; [2]): 7.89
- Expression of induced resistance gene, Hydroxyproline (Hydroxyproline; 200 µg/mℓ, Spraying): 1.79
- Gene expression level, Hydroxyproline (Hydroxyproline; 200 µg/mℓ, After 1 day): 10.06
- Gene expression level, Hydroxyproline (Hydroxyproline; 200 µg/mℓ, After 7 days): 1.2
- Gene expression level, Hydroxyproline (Hydroxyproline; 200 µg/mℓ, After 14 days): 0.32
- Gene expression level, Hydroxyproline (Hydroxyproline; concentration series, 2 µg/mℓ): 3.138
- Gene expression level, Hydroxyproline (Hydroxyproline; concentration series, 20 µg/mℓ): 4.438
- Gene expression level, Hydroxyproline (Hydroxyproline; [3]): 4.627
- Expression of induced resistance gene, Metallothionein (Metallothionein; 200 µg/mℓ): 0.11
- Expression of induced resistance gene, Metallothionein (Metallothionein; [2]): 29.86
- Expression of induced resistance gene, Metallothionein (Metallothionein; 200 µg/mℓ, Spraying): 0.11
- Gene expression level, Metallothionein (Metallothionein; 200 µg/mℓ, After 1 day): 7.89
- Gene expression level, Metallothionein (Metallothionein; 200 µg/mℓ, After 7 days): 0.41
- Gene expression level, Metallothionein (Metallothionein; 200 µg/mℓ, After 14 days): 0.29
- Gene expression level, Metallothionein (Metallothionein; concentration series, 2 µg/mℓ): 0.5946
- Gene expression level, Metallothionein (Metallothionein; concentration series, 20 µg/mℓ): 0.79
- Gene expression level, Metallothionein (Metallothionein; [3]): 0.9266
- Expression of induced resistance gene, PR_10 family (PR_10 family; 200 µg/mℓ): 1.71
- Expression of induced resistance gene, PR_10 family (PR_10 family; [2]): 10.63
- Expression of induced resistance gene, PR_10 family (PR_10 family; 200 µg/mℓ, Spraying): 1.71
- Gene expression level, PR_10 family (PR_10 family; 200 µg/mℓ, After 1 day): 8.57
- Gene expression level, PR_10 family (PR_10 family; 200 µg/mℓ, After 7 days): 0.51
- Gene expression level, PR_10 family (PR_10 family; 200 µg/mℓ, After 14 days): 0.64
- Gene expression level, PR_10 family (PR_10 family; concentration series, 2 µg/mℓ): 0.8293
- Gene expression level, PR_10 family (PR_10 family; concentration series, 20 µg/mℓ): 1.11
- Gene expression level, PR_10 family (PR_10 family; [3]): 1.094
- Expression of induced resistance gene, PR_1b family (PR_1b family): 2
- Expression of induced resistance gene, PR_1b family (PR_1b family; [1]): 6.28
- Expression of induced resistance gene, PR_1b family (PR_1b family; Spraying): 2
- Gene expression level, PR_1b family (PR_1b family; After 1 day): 6.28
- Gene expression level, PR_1b family (PR_1b family; After 7 days): 0.72
- Gene expression level, PR_1b family (PR_1b family; After 14 days): 0.4
- Gene expression level, PR_1b family (PR_1b family; concentration series): 0.9395
